Test results taken from PMC5750218, “Protein-inspired antibiotics active against vancomycin- and daptomycin-resistant bacteria” (Nature Communications, 2018).
Converted amounts (≈) assume the structure as drawn. Like-named read-outs stand apart in the source and are kept apart here.

Key:
[1] = system: Vancomycin-resistant S. aureus NARSA VRS4; assay: microbe, parasite or virus in culture; assay type: cell-based, Staphylococcus aureus; conditions: for MIC VRSA: Vancomycin-resistant NARSA VRS4
[2] = system: Methicillin-resistant S. aureus ATCC 43300; assay: microbe, parasite or virus in culture; conditions: for MIC MRSA: ATCC 43300, 24 h
Outline: (§1)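 Growth inhibition measured by broth microdilution (MHB, 37 °C, 24 h incubation). MIC defined visually as the lowest inhibitory concentration.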

[3] = system: Multi-drug-resistant S. pneumoniae ATCC 700677; assay: microbe, parasite or virus in culture; conditions: for MIC MDR S.P.: ATCC 700677
Outline: as §1

[4] = system: Vancomycin-intermediate S. aureus NRS1; assay: microbe, parasite or virus in culture; conditions: for MIC VISA: Vancomycin-intermediate NRS1
Outline: as §1

[5] = system: Vancomycin-resistant (VanA) Enterococcus faecium ATCC 51559; assay: microbe, parasite or virus in culture; conditions: for MIC VRE: ATCC 51559
Outline: as §1

Cytotoxicity MTT assay [6] = assay type: cell-based, human; conditions: human
Procedure: (§2) Compound cytotoxicity was evaluated against HepG2 (ATCC-®HB-8065 liver hepatoceullular carcinoma) and HEK293 (ATCC®CRL-1573, embryonic kidney) human cell lines using standard (3-(4,5-dimethylthiazol-2-yl)−2,5-diphenyltetrazolium bromide (MTT) assay protocol with slight changes. In brief, HepG2 and HEK293 cells (assessed annually for mycoplasma contamination) were seeded as 1.5 × 10^4 cells per well in a clear 96-well tissue culture treated plate in a final volume of 100 μL in Dulbecco’s Modified Eagle Medium (DMEM)(GIBCO-Invitrogen #11995-073), in which 1% of FBS was added. Cells were incubated for 24 h at 37 °C, 5% CO2 to allow cells to attach to the plates. Compounds prepared at 100 µM to 0.046 µM in threefold dilutions were added into each well and incubated for 24 h at 37 °C, 5% CO2. After the incubation, 0.4 mg mL^−1 MTT (3-(4,5-dimethylthiazol-2-yl)−2,5-diphenyltetrazolium bromide) (Invitrogen) was added to each well. The plates were then incubated for 2 h at 37 °C, 5% CO2. The media was removed, and purple formazan crystals were resuspended in 60 μL of DMSO. The absorbance was read at 570 nm using a Polarstar Omega plate reader. The data was then analysed by Prism software. Results are presented as the average percentage of control ± S.D. for each set of duplicate wells using the following equation: percent viability = (ABSTEST – ABSPOSITIVE CTRL / ABSUNTREATED –ABS POSITIVE CTRL)×100.

[7] = system: S. pneumoniae ATCC 700677 MDR; assay: microbe, parasite or virus in culture; assay type: cell-based, Streptococcus pneumoniae; conditions: Streptococcus pneumoniae, ATCC700677, 24 h
Procedure: (§3) The compounds, along with standard antibiotics were serially diluted twofold across the wells of 96-well non-binding surface (NBS) polystyrene plates (Corning 3641). […] Standards ranged from 64 to 0.03 µg mL^−1 and compounds from 8 to 0.003 µg mL^−1 with final assay volumes of 100 µL per well. Gram-positive bacteria were cultured in Mueller Hinton broth (MHB) (Bactolaboratories, Cat. no. 211443) at 37 °C overnight. A sample of each culture was then diluted 40-fold in fresh MHB and incubated at 37 °C for 2–3 h. The resultant mid-log phase cultures were added to the compound-containing 96-well plates to give a final cell density of 5 × 10^5 colony forming unit (CFU) mL^−1. All the plates were covered and incubated at 37 °C for 24 h. MICs were the lowest concentration showing no visible growth.

S. pneumoniae ATCC 33400 = assay: microbe, parasite or virus in culture; assay type: cell-based, Streptococcus pneumoniae; conditions: Streptococcus pneumoniae, ATCC33400, 24 h
Procedure: as §3

[8] = system: S. aureus ATCC 43300 MRSA; assay: microbe, parasite or virus in culture; assay type: cell-based, Staphylococcus aureus; conditions: Staphylococcus aureus, 24 h
Procedure: as §3

Cytotoxicity MTT assay [9] = assay type: cell-based, human; conditions: human; remark: listed apart in the source
Procedure: as §2, with “Compounds prepared at 100 µM to 0.046 µM in threefold dilutions were added into each well and incubated for 24 h at 37 °C, 5% CO2.” left out

Haemolysis assay = assay type: cell-based; conditions: human, whole blood
Procedure: Haemolytic activity was measured as previously described with slight modifications, [45]. Fresh human venal blood was collected from healthy volunteers and pretreated with the anticoagulant sodium citrate. Serial twofold dilutions of each antibiotic, dissolved in 0.9% NaCl solution, were added to fresh human whole blood (50% final, vol:vol) to the final volume of 80 μL and incubated at 37 °C for 3 h on a horizontal shaker at 200 rpm. For negative and positive controls, human whole blood in 0.9% NaCl solution (A blank) and in sdH2O (A water) were used, respectively. After incubation, both test and A blank were mixed with 1 mL 0.9% NaCl solution, or sdH2O for the complete […] A water. After centrifugation of samples at 2500 rpm (700 × g) for 5 min, the release of haemoglobin was monitored by measuring the absorbance (A sample) of the supernatant at 540 nm using BMG Labtech PolarStar Omega multimode reader. The percentage of haemolysis was calculated according to the equation: %haemolysis=Asample-Ablank∕Awater-Ablank×100

MIC VRSA [1]	MIC MRSA [2]	MIC MDR S.P. [3]	MIC VISA [4]	MIC VRE [5]	Compound	CC50 at 24 h (Cytotoxicity MTT assay [6])	CC50 at 24 h (Cytotoxicity MTT assay [9])	also measured
0.75 µg/mL (≈ 0.354 µM)	0.06 µg/mL (≈ 0.0284 µM)	0.06 µg/mL (≈ 0.0284 µM)	0.75 µg/mL (≈ 0.354 µM)	8 µg/mL (≈ 3.78 µM)	CCCCCCCCCC(=O)N[C@@H](CCCCN)C(=O)N[C@@H](CCCCN)C(=O)N[C@@H](CCCCN)C(=O)N[C@@H](CCCCNC(=O)[C@H]1NC(=O)[C@H]2NC(=O)[C@H](NC(=O)[C@@H]3NC(=O)[C@H](CC(N)=O)NC(=O)[C@H](NC(=O)[C@@H](CC(C)C)NC)[C@H](O)c4ccc(c(Cl)c4)Oc4cc3cc(c4O[C@@H]3O[C@H](CO)[C@@H](O)[C@H](O)[C@H]3O[C@H]3C[C@](C)(N)[C@H](O)[C@H](C)O3)Oc3ccc(cc3Cl)[C@H]2O)c2ccc(O)c(c2)-c2c(O)cc(O)cc21)C(=O)O [Compound 36, nC9CO-KKK-K(Vancomycin)-OH]			
					CCCCCCCCCCNCCN[C@@]1(C)C[C@H](O[C@H]2[C@H](Oc3c4cc5cc3Oc3ccc(cc3Cl)[C@@H](O)[C@@H](NC(=O)[C@@H](CC(C)C)NC)C(=O)N[C@@H](CC(N)=O)C(=O)N[C@H]5C(=O)N[C@H]3C(=O)N[C@H](C(=O)N[C@H](C(=O)O)c5cc(O)c(CNCP(=O)(O)O)c(O)c5-c5cc3ccc5O)[C@H](O)c3ccc(c(Cl)c3)O4)O[C@H](CO)[C@@H](O)[C@@H]2O)O[C@@H](C)[C@H]1O [Compound 2, Telavancin]			CC50 at 24 h (Cytotoxicity MTT assay [6]; 24 h, MTT, 1% FBS, read-out: Cytotoxicity CC50 HEK293): > 100 µM; MIC ([1]; Staphylococcus aureus, VRSA, read-out: MIC VRSA): 1 µg/mL (≈ 0.57 µM); MIC ([7]; read-out: MIC S. pneumoniae ATCC 700677 MDR, 1% Survanta): 0.06 to 0.125 µg/mL (≈ 0.0342 to 0.0712 µM); MIC ([7]; read-out: MIC S. pneumoniae ATCC 700677 MDR, 5% Survanta): 0.25 µg/mL (≈ 0.142 µM); MIC ([7]; read-out: MIC S. pneumoniae ATCC 700677 MDR, no added Survanta): 0.06 to 0.125 µg/mL (≈ 0.0342 to 0.0712 µM); MIC (S. pneumoniae ATCC 33400; read-out: MIC S. pneumoniae ATCC 33400, 1% Survanta): 0.25 µg/mL (≈ 0.142 µM); MIC (S. pneumoniae ATCC 33400; read-out: MIC S. pneumoniae ATCC 33400, 5% Survanta): 0.5 µg/mL (≈ 0.285 µM); MIC (S. pneumoniae ATCC 33400; read-out: MIC S. pneumoniae ATCC 33400, no added Survanta): 0.125 to 0.25 µg/mL (≈ 0.0712 to 0.142 µM); MIC ([8]; read-out: MIC S. aureus ATCC 43300 MRSA, 1% Survanta): 0.126 µg/mL (≈ 0.0715 µM); MIC ([8]; read-out: MIC S. aureus ATCC 43300 MRSA, 5% Survanta): 0.25 to 0.5 µg/mL (≈ 0.142 to 0.285 µM); MIC ([8]; read-out: MIC S. aureus ATCC 43300 MRSA, no added Survanta): 0.125 µg/mL (≈ 0.0712 µM); MIC ([2]; Staphylococcus aureus, ATCC43300|MRSA, 24 h, read-out: MIC MRSA, S. aureus ATCC 43300, NBS plates, MHB, 24 h, substance alone): 0.03 µg/mL (≈ 0.0171 µM); MIC ([3]; Streptococcus pneumoniae, ATCC700677, read-out: MIC MDR S.P.): 0.06 µg/mL (≈ 0.0342 µM); MIC ([4]; Staphylococcus aureus, NRS1 / VISA, read-out: MIC VISA): 0.25 µg/mL (≈ 0.142 µM); MIC ([5]; Enterococcus faecium, ATCC51559 / VRE, read-out: MIC VRE): 2 µg/mL (≈ 1.14 µM); CC50 at 24 h (Cytotoxicity MTT assay [9]; 24 h, MTT, 1% FBS, read-out: Cytotoxicity CC50 HepG2): > 100 µM
0.75 µg/mL (≈ 0.35 µM)	0.005 µg/mL (≈ 0.00233 µM)	<0.003 µg/mL	0.06 µg/mL (≈ 0.028 µM)	0.5 µg/mL (≈ 0.233 µM)	CCCCCCCCCCCC(=O)N[C@@H](CCCCN)C(=O)N[C@@H](CCCCN)C(=O)N[C@@H](CCCCN)C(=O)N[C@@H](CCCCNC(=O)[C@H]1NC(=O)[C@H]2NC(=O)[C@H](NC(=O)[C@@H]3NC(=O)[C@H](CC(N)=O)NC(=O)[C@H](NC(=O)[C@@H](CC(C)C)NC)[C@H](O)c4ccc(c(Cl)c4)Oc4cc3cc(c4O[C@@H]3O[C@H](CO)[C@@H](O)[C@H](O)[C@H]3O[C@H]3C[C@](C)(N)[C@H](O)[C@H](C)O3)Oc3ccc(cc3Cl)[C@H]2O)c2ccc(O)c(c2)-c2c(O)cc(O)cc21)C(=O)O [Compound 37, nC11CO-KKK-K(Vancomycin)-OH]			
>8 µg/mL					CN[C@H](CC(C)C)C(=O)N[C@H]1C(=O)N[C@@H](CC(N)=O)C(=O)N[C@H]2C(=O)N[C@H]3C(=O)N[C@H](C(=O)N[C@H](C(=O)NCCCC[C@H](NC(=O)[C@H](CCCCN)NC(=O)[C@H](CCCCN)NC(C)=O)C(=O)O)c4cc(O)cc(O)c4-c4cc3ccc4O)[C@H](O)c3ccc(c(Cl)c3)Oc3cc2cc(c3O[C@@H]2O[C@H](CO)[C@@H](O)[C@H](O)[C@H]2O[C@H]2C[C@](C)(N)[C@H](O)[C@H](C)O2)Oc2ccc(cc2Cl)[C@H]1O [Compound 25, Ac-KK-K(Vancomycin)-OH]	> 500 µM	> 500 µM	
0.5 µg/mL (≈ 0.248 µM)	0.015 µg/mL (≈ 0.00744 µM)	0.015 µg/mL (≈ 0.00744 µM)	0.125 µg/mL (≈ 0.062 µM)	4 µg/mL (≈ 1.98 µM)	CCCCCCCCCCC(=O)N[C@@H](CCCCN)C(=O)N[C@@H](CCCCN)C(=O)N[C@@H](CCCCNC(=O)[C@H]1NC(=O)[C@H]2NC(=O)[C@H](NC(=O)[C@@H]3NC(=O)[C@H](CC(N)=O)NC(=O)[C@H](NC(=O)[C@@H](CC(C)C)NC)[C@H](O)c4ccc(c(Cl)c4)Oc4cc3cc(c4O[C@@H]3O[C@H](CO)[C@@H](O)[C@H](O)[C@H]3O[C@H]3C[C@](C)(N)[C@H](O)[C@H](C)O3)Oc3ccc(cc3Cl)[C@H]2O)c2ccc(O)c(c2)-c2c(O)cc(O)cc21)C(=O)NC [Compound 22, nC10CO-KK-K(Vancomycin)-NHMe]	47 µM	80 µM	hemolysis at 3 h (Haemolysis assay; 100 µg mL-1): 1.9%; hemolysis at 3 h (Haemolysis assay; 1600 µg mL-1): 2.7%
